Converted amounts (≈) assume the structure as drawn. Like-named read-outs stand apart in the source and are kept apart here.
Key:
P. aeruginosa PAO1 = test: Resazurin bacterial inhibition assay (MIC), P. aeruginosa; type: cell-based; conditions: Pseudomonas aeruginosa, read-out: Minimum Inhibitory Concentration P. aeruginosa
[1] = test system: human hepatocellular carcinoma cells (Hep-G2); test: Resazurin cytotoxicity assay, HepG2
Excerpt: (§1) To identify marine samples with activity against MRSA, 1434 compounds from the AIMS Bioresources Library (provided by the Queensland Compound Library, Brisbane, Australia, now called Compounds Australia) were screened in a resazurin cell viability assay.
(§2) Toxicity of AIMS Extract Library. Human alveolar epithelial cells (A549), Madin-Darby canine kidney epithelial cells (MDCK), human leukaemia cells (THP-1), human hepatocellular carcinoma cells (Hep-G2) and human embryonic kidney cells 293 (HEK293) were grown and differentiated in complete RPMI (Roswell Park Memorial Institute Medium) and DMEM (Dulbecco’s Modified Eagle’s medium) tissue culture media (RPMIc and DMEMc, from the Thermo Fisher Scientific, Waltham, MA, USA) by adding 10% FBS, 200 µM L-glutamine and 1 mM HEPES buffer solution. To determine toxicity of the AIMS extract library, 2 × 10^5 of each cell type were added to a 96-well plate and left for 48 h in a humidified 5% CO2 incubator at 37 °C to adhere. Extract samples at a final concentration of 0.5 mg mL^−1 were added to the wells, then the plates incubated for 4 more days in a humidified 5% CO2 incubator at 37 °C. Then, resazurin (10 μL of 0.05% w/v) was added and after 4 h, fluorescence measured as described previously. The cell viability was calculated as percentage fluorescence relative to untreated cells.

[2] = test system: methicillin-resistant Staphylococcus aureus (MRSA); test: Resazurin bacterial inhibition assay (MIC), MRSA; type: cell-based; conditions: 18 h, read-out: Minimum Inhibitory Concentration MRSA
E. coli EC958 = test: Resazurin bacterial inhibition assay (MIC), E. coli; type: cell-based; conditions: read-out: Minimum Inhibitory Concentration E. coli
M. tuberculosis H37Rv = test: Resazurin bacterial inhibition assay (MIC), M. tuberculosis; type: cell-based; conditions: Mycobacterium tuberculosis, 168 h, commercial compounds, 7 days, read-out: Minimum Inhibitory Concentration M. tuberculosis H37Rv
[3] = test system: human leukaemia cells (THP-1); test: Resazurin cytotoxicity assay, THP-1
Excerpt: as §1
as §2, with “Extract samples at a final concentration of 0.5 mg mL^−1 were added to the wells, then the plates incubated for 4 more days in a humidified 5% CO2 incubator at 37 °C.” left out

[4] = test system: human embryonic kidney cells 293 (HEK293); test: Resazurin cytotoxicity assay, HEK 293
Excerpt: as §1, §2

[5] = test system: Human alveolar epithelial cells (A549); test: Resazurin cytotoxicity assay, A549
Excerpt: as §1, §2

[6] = PAO1, commercial compounds, 18 h, resazurin
[7] = Staphylococcus aureus, MRSA, commercial compounds, resazurin
[8] = Escherichia coli, EC958, commercial compounds, 18 h, resazurin
[9] = commercial compounds, unit from Table 8 head
[10] = commercial compounds, unit from Table 8 head, listed as 1,10 phenanthroline

Row | Compound | MIC (P. aeruginosa PAO1; [6]) | Minimum Toxicity Concentration HepG2 ([1]; human, 4 days) | MIC [2, 7] | MIC (E. coli EC958; [8]) | MIC (M. tuberculosis H37Rv) | Minimum Toxicity Concentration THP-1 ([3]; human, 4 days) | Minimum Toxicity Concentration HEK 293 ([4]; human, 4 days) | Minimum Toxicity Concentration A549 ([5]; human, 4 days) | Minimum Toxicity Concentration HepG2 [1, 9] | Minimum Toxicity Concentration THP-1 [3, 9] | Minimum Toxicity Concentration HEK 293 [4, 9] | Minimum Toxicity Concentration A549 [5, 9] | Minimum Toxicity Concentration THP-1 [3, 10] | Minimum Toxicity Concentration HEK 293 [4, 10] | Minimum Toxicity Concentration A549 [5, 10] | MIC (E. coli EC958; commercial compounds, 18 h, resazurin) | MIC ([2]; commercial compounds, resazurin) | MIC (P. aeruginosa PAO1; PAO1, 18 h) | MIC ([2]; Staphylococcus aureus, MRSA) | MIC (E. coli EC958; Escherichia coli, EC958, 18 h)
1 | Cc1ccnc2c1ccc1c(C)ccnc12 [4,7-Dimethyl-1,10-Phenanthrolin] | 0.1 µM (≈ 0.0208 µg/mL) | 0.1 µM | 0.3 µM (≈ 0.0625 µg/mL) | 0.3 µM (≈ 0.0625 µg/mL) | 0.1 µM (≈ 0.0208 µg/mL) | 0.1 µM | 0.1 µM | 0.1 µM | – | – | – | – | – | – | – | – | – | – | – | –
2 | c1ccc2ncccc2c1 [Quinoline] | > 100 µM | 3 µM | > 100 µM | > 100 µM | 0.1 µM (≈ 0.0129 µg/mL) | – | – | 50 µM | – | – | – | – | – | – | – | – | – | – | – | –
3 | c1ccc2cnccc2c1 [Isoquinoline] | > 100 µM | 3 µM | > 100 µM | > 100 µM | 0.1 µM (≈ 0.0129 µg/mL) | – | – | – | – | – | – | – | – | – | – | – | – | – | – | –
4 | c1ccc(-c2ccccn2)nc1 [2,2′-Bipyridine] | > 100 µM | – | > 100 µM | > 100 µM | 0.1 µM (≈ 0.0156 µg/mL) | – | – | – | 3 µM | 50 µM | 3 µM | >100 µM | – | – | – | – | – | – | – | –
5 | c1ccc(CN(Cc2ccccc2)Cc2ccccc2)cc1 [Tribenzylamine] | 6.5 µM (≈ 1.87 µg/mL) | – | > 100 µM | > 100 µM | > 100 µM | – | – | – | >100 µM | >100 µM | >100 µM | >100 µM | – | – | – | – | – | – | – | –
6 | c1cnc2ccc3ncccc3c2c1 [4,7-phenanthroline] | 2.5 µM (≈ 0.451 µg/mL) | – | 1.5 µM (≈ 0.27 µg/mL) | 1.5 µM (≈ 0.27 µg/mL) | 2.5 µM (≈ 0.451 µg/mL) | – | – | – | >100 µM | >100 µM | >100 µM | >100 µM | – | – | – | – | – | – | – | –
7 | CCN(CC)CC [Triethylamine] | > 100 µM | >100 µM | > 100 µM | > 100 µM | > 100 µM | >100 µM | >100 µM | >100 µM | – | – | – | – | – | – | – | – | – | – | – | –
8 | Cc1cc(-c2ccccc2)c2ccc3c(-c4ccccc4)cc(C)nc3c2n1 [2,9-Dimethyl-4,7-diphenyl-1,10-phenanthroline] | 50 µM (≈ 18 µg/mL) | 0.1 µM | 25 µM (≈ 9.01 µg/mL) | 0.78 µM (≈ 0.281 µg/mL) | 50 µM (≈ 18 µg/mL) | >100 µM | 0.1 µM | >100 µM | – | – | – | – | – | – | – | – | – | – | – | –
9 | CCCCCCCCN(CCCCCCCC)CCCCCCCC [Trioctylamine] | 25 µM (≈ 8.84 µg/mL) | – | 12.5 µM (≈ 4.42 µg/mL) | 25 µM (≈ 8.84 µg/mL) | 0.02 µM (≈ 0.00707 µg/mL) | – | – | – | >100 µM | 3.1 µM | 6 µM | 50 µM | – | – | – | – | – | – | – | –
10 | c1cnc2c(c1)ccc1cccnc12 [1,10-phenanthroline] | 0.3 µM (≈ 0.0541 µg/mL) | – | > 100 µM | 50 µM (≈ 9.01 µg/mL) | 0.1 µM (≈ 0.018 µg/mL) | – | – | – | 0.1 µM | 0.1 µM | 50 µM | 3 µM | 3 µM | 0.1 µM | 50 µM | – | – | – | – | –
11 | c1cnc2c(c1)ccc1ncccc12 [1,7-phenanthroline] | 2.5 µM (≈ 0.451 µg/mL) | – | 25 µM (≈ 4.51 µg/mL) | 25 µM (≈ 4.51 µg/mL) | > 100 µM | – | – | – | >100 µM | >100 µM | >100 µM | >100 µM | – | – | – | – | – | – | – | –
12 | C1CCC(NC2CCCCC2)CC1 [Dicyclohexylamine] | 12.5 µM (≈ 2.27 µg/mL) | – | > 100 µM | > 100 µM | > 100 µM | – | – | – | >100 µM | >100 µM | >100 µM | >100 µM | – | – | – | – | – | – | – | –
13 | NCc1ccccc1 [Benzylamine] | > 100 µM | >100 µM | > 100 µM | > 100 µM | > 100 µM | >100 µM | >100 µM | >100 µM | – | – | – | – | – | – | – | – | – | – | – | –
14 | c1ccc(CNCc2ccccc2)cc1 [Dibenzylamine] | 12.5 µM (≈ 2.47 µg/mL) | >100 µM | > 100 µM | > 100 µM | > 100 µM | >100 µM | >100 µM | >100 µM | – | – | – | – | – | – | – | – | – | – | – | –
15 | c1ccc(-c2ccnc3c2ccc2c(-c4ccccc4)ccnc23)cc1 [Bathophenanthroline] | 0.03 µM (≈ 0.00997 µg/mL) | 1.5 µM | 0.09 µM (≈ 0.0299 µg/mL) | 0.019 µM (≈ 0.00632 µg/mL) | 0.01 µM (≈ 0.00332 µg/mL) | 13 µM | 25 µM | 3 µM | – | – | – | – | – | – | – | 0.019 µM (≈ 0.00632 µg/mL) | – | – | – | –
16 | O=C1C(=O)c2cccnc2-c2ncccc21 [1,10-Phenanthroline-5,6-dione] | 0.04 µM (≈ 0.00841 µg/mL) | 0.1 µM | 0.04 µM (≈ 0.00841 µg/mL) | 0.04 µM (≈ 0.00841 µg/mL) | 0.1 µM (≈ 0.021 µg/mL) | 0.1 µM | 0.1 µM | 0.1 µM | – | – | – | – | – | – | – | – | 0.04 µM (≈ 0.00841 µg/mL) | – | – | –
17 | CCCCCCCCNCCCCCCCC [Dioctylamine] | 3 µM (≈ 0.724 µg/mL) | – | 6.2 µM (≈ 1.5 µg/mL) | 6.2 µM (≈ 1.5 µg/mL) | > 100 µM | – | – | – | >100 µM | >100 µM | >100 µM | >100 µM | – | – | – | – | – | – | – | –
18 | Cc1c(C)c2cccnc2c2ncccc12 [5,6-Dimethyl-1,10-phenanthroline] | > 100 µM | – | 0.3 µM (≈ 0.0625 µg/mL) | 0.78 µM (≈ 0.162 µg/mL) | 0.1 µM (≈ 0.0208 µg/mL) | – | – | – | 0.1 µM | 0.1 µM | 0.1 µM | 0.1 µM | – | – | – | – | – | – | – | –
19 | Cc1cnc2c(ccc3c(C)c(C)cnc32)c1C [3,4,7,8-Tetramethyl-1,10-phenanthroline] | 0.3 µM (≈ 0.0709 µg/mL) | – | 0.3 µM (≈ 0.0709 µg/mL) | 0.3 µM (≈ 0.0709 µg/mL) | 0.1 µM (≈ 0.0236 µg/mL) | – | – | – | 0.1 µM | 0.1 µM | 0.1 µM | 0.1 µM | – | – | – | – | – | – | – | –
20 | CCCCN(CCCC)CCCC [Tributylamine] | – | – | – | – | > 100 µM | – | – | – | >100 µM | >100 µM | >100 µM | >100 µM | – | – | – | – | – | 50 µM (≈ 9.27 µg/mL) | > 100 µM | > 100 µM
21 | O=[N+]([O-])c1cc2cccnc2c2ncccc12 [5-Nitro-1,10-phenanthroline] | > 100 µM | 0.1 µM | 0.09 µM (≈ 0.0203 µg/mL) | 0.78 µM (≈ 0.176 µg/mL) | 0.1 µM (≈ 0.0225 µg/mL) | 0.1 µM | 0.1 µM | 12 µM | – | – | – | – | – | – | – | – | – | – | – | –
22 | Cc1ccc2ccc3ccc(C)nc3c2n1 [Neocuproine hemihydrate] | 0.04 µM | – | 0.09 µM | 0.3 µM | 0.1 µM | – | – | – | 0.1 µM | 12 µM | 0.1 µM | 6.2 µM | – | – | – | – | – | – | – | –
